Test results: US5128338A, “Imidazo [1,2-c] quinazoline compounds” (priority 1990, dated 1992)

Columns and labels:
[1] = molecular target: central receptors for benzodiazepines; assay: Displacement of [3H]-RO 151788, rat central nervous system microsomal fractions; format: binding; details: corrected for DMSO, read-out: K0.5, central receptors, [^3 H]--RO 151788
[2] = molecular target: T1, peripheral receptors for benzodiazepines ([^3 H]-R05-4864) (Rattus norvegicus, UniProt P16257); assay: Displacement of [3H]-R05-4864, rat heart microsomal fractions; format: binding; details: corrected for DMSO, read-out: K0.5, peripheral receptors, [^3 H]--RO 54864;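 note: Read-out is filter-retained bound radioligand, separated from free ligand by vacuum filtration over GF/C and counted by liquid scintillation, with compounds first dissolved in DMSO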
T1 construct: on microsomal fractions from rat heart; from tissue; host or cells: rat heart, microsomal fractions

[3] = molecular target: T2, peripheral receptors for benzodiazepines ([^3 H]-PK 11195) (Rattus norvegicus, UniProt P16257); assay: Displacement of [3H]-PK 11195, rat heart microsomal fractions; format: binding; details: corrected for DMSO, read-out: K0.5, peripheral receptors, [^3 H]--PK 11195;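 note: radioligand binding with bound label split from free by vacuum filtration, then quantified through liquid scintillation counting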
T2 construct: on microsomal fractions from rat heart; from tissue; host or cells: rat heart, microsomal fractions

porcine coronary = assay: Porcine coronary relaxation (PGF2α-precontracted coronary segments); parameters: species or system pig (Yucatan mini pig); details: for level of relaxation obtained as well as the 50% effect value (K0.5) obtained by displacement: overall judgement of relaxation and K0.5; for EC20 / EC50: Sus scrofa, 37° C., corrected for DMSO; for EC20: read-out: DE20, effect on coronary tension induced by PGF2α; for EC50: read-out: DE50, effect on coronary tension induced by PGF2α
Experimental: All the products studied were dissolved in DMSO at a concentration of 10^-2 M, then diluted to the desired concentrations in the experimental media. All of the ED20, ED50 and K0.5 values were corrected for the values obtained with DMSO under the same conditions of dilution.
Coronaries were taken on the heart of pigs (Yucatan mini pig), anesthetized under stresnil and pentobarbital. Proximal segments of the coronary were placed in an organ tank filled with Ringer solution at 37° C. The segments were tightened progressively to a base tension of around 6 g and contracted by the addition of PGF2α at a concentration of 4.10^-6 M. The potential of the products of the present invention to relax the coronary artery were then tested.
All of the compounds were tested for their capacity to relax the porcine coronary precontracted by PGF2α.

[4] = porcine coronary segments, PGF2α 4.10^-6 M

Structure (SMILES)	IC50 [1] [µM]	IC50 [2] [µM]	IC50 [3] [µM]	level of relaxation obtained as well as the 50% effect value (K0.5) obtained by displacement (porcine coronary)	EC20 (porcine coronary; [4]) [µM]	EC50 (porcine coronary; [4]) [µM]	Effect on coronary tension induced by PGF2α (in words) (porcine coronary; [4])
CCCN(CCC)C(=O)Cn1c(=O)n2c(C)c(-c3cccc(Cl)c3)nc2c2ccccc21 [Example 32, 2-(m-chlorophenyl)-3-methyl-6-N,N-dipropylaminocarbonylmethyl-5-oxo-5,6-dihydroimidazo[1,2-c]quinazoline]	> 100	0.0031	0.0024	particularly favorable			
CCN(CC)C(=O)Cn1c(=O)n2cc(-c3ccc(Cl)cc3)nc2c2ccccc21 [Example 15, 2-(p-chlorophenyl)-6-N,N-diethylaminocarbonylmethyl-5-oxo-5,6-dihydroimidazo[1,2-c]quinazoline]	> 100	~100	1.5		45.4	6.12	
CCOC(=O)Cn1c(=O)n2cc(-c3ccccc3)nc2c2ccccc21 [Example 13, 2-phenyl-6-ethoxycarbonylmethyl-5-oxo-5,6-dihydroimidazo[1,2-c]quinazoline]	> 100	> 100	100		84.2	7.15	
O=C(Cn1c(=O)n2cc(-c3ccccc3)nc2c2ccccc21)N1CCOCC1 [Example 16, 2-phenyl-6-morpholinocarbonylmethyl-5-oxo-5,6-dihydroimidazo[1,2-c]quinazoline]	> 100	> 100	> 100		12.3	3.49	
CCN(CC)C(=O)Cn1c(=O)n2cc(-c3ccc(OC)cc3)nc2c2ccccc21 [Example 17, 2-(p-methoxyphenyl)-6-N,N-diethylaminocarbonylmethyl-5-oxo-5,6-dihydroimidazo[1,2-c]quinazoline]	100	0.12	0.14	particularly favorable	2.22	0.45	
CCOC(=O)c1cn2c(=O)[nH]c3ccccc3c2n1 [Example 1, 2-Ethoxycarbonyl-5-oxo-5,6-dihydroimidazo[1,2-c]quinazoline]	1	61	> 100				No effect
CCN(CC)C(=O)Cn1c(=O)n2cc(-c3ccccc3)nc2c2c(Cl)cccc21 [Example 31, 2-phenyl-6-N,N-diethylaminocarbonylmethyl-10-chloro-5-oxo-5,6-dihydroimidazo[1,2-c]quinazoline]	100	2.8	1.4				
CCOC(=O)CCCn1c(=O)n2cc(-c3ccccc3)nc2c2ccccc21 [Example 27, 2-phenyl-6-ethoxycarbonylpropyl-5-oxo-5,6-dihydroimidazo[1,2-c]quinazoline]	100	60	> 100		> 100	> 100	
CCN(CC)C(=O)Cn1c(=O)n2cc(-c3ccco3)nc2c2ccccc21 [Example 21, 2-(2-furyl)-6-N,N-diethylaminocarbonylmethyl-5-oxo-5,6-dihydroimidazo[1,2-c]quinazoline]	> 100	0.58	0.26		3.89	1	
CCN(CC)C(=O)Cn1c(=O)n2cc(-c3cccc(Cl)c3)nc2c2ccccc21 [Example 19, 2-(m-chlorophenyl)-6-N,N-diethylaminocarbonylmethyl-5-oxo-5,6-dihydroimidazo[1,2-c]quinazoline]	> 100	0.05	0.058		23.6	2.36	
CC(C)CNC(=O)Cn1c(=O)n2cc(-c3ccccc3)nc2c2ccccc21 [Example 24, 2-phenyl-6-N-isobutylaminocarbonylmethyl-5-oxo-5,6-dihydroimidazo[1,2-c]quinazoline]	> 100	> 100	> 100		24.1	0.99	
CC(C)NC(=O)Cn1c(=O)n2cc(-c3ccccc3)nc2c2ccccc21 [Example 14, 2-phenyl-6-N-isopropylaminocarbonylmethyl-5-oxo-5,6-dihydroimidazo[1,2-c]quinazoline]	> 100	> 100	> 100		386	13.8	
CCN(CC)C(=O)Cn1c(=O)n2cc(-c3ccsc3)nc2c2ccccc21 [Example 22, 2-(3-thienyl)-6-N,N-diethylaminocarbonylmethyl-5-oxo-5,6-dihydroimidazo[1,2-c]quinazoline]	> 100	0.13	0.2		3.51	0.73	
CCN(CC)C(=O)Cn1c(=O)n2cc(-c3ccc(C)cc3)nc2c2ccccc21 [Example 18, 2-(p-methylphenyl)-6-N,N-diethylaminocarbonylmethyl-5-oxo-5,6-dihydroimidazo[1,2-c]quinazoline]	100	0.07	0.21		8.37	0.94	
CCCN(CCC)C(=O)Cn1c(=O)n2cc(-c3ccccc3)nc2c2ccccc21 [Example 28, 2-phenyl-6-N,N-dipropylaminocarbonylmethyl-5-oxo-5,6-dihydroimidazo[1,2-c]quinazoline]	100			particularly favorable	> 100	196	
CCN(CC)C(=O)Cn1c(=O)n2cc(-c3ccccc3)nc2c2ccccc21 [Example 11, 2-phenyl-6-N,N-diethylaminocarbonylmethyl-5-oxo-5,6-dihydroimidazo[1,2-c]quinazoline]	> 100			particularly favorable	6.93	1.13	
CCN(CC)C(=O)Cn1c(=O)n2cc(-c3ccc(OC)c(OC)c3)nc2c2ccccc21 [Example 23, 2-(3,4-dimethoxyphenyl)-6-N,N-diethylaminocarbonylmethyl-5-oxo-5,6-dihydroimidazo[1,2-c]quinazoline]	> 100				0.74	0.18	
CCN(CC)C(=O)CCCn1c(=O)n2cc(-c3ccccc3)nc2c2ccccc21 [Example 26, 2-phenyl-6-N,N-diethylaminocarbonylpropyl-5-oxo-5,6-dihydroimidazo[1,2-c]quinazoline]	100	2.3	10		45.3	7.67	
CCN(CC)C(=O)Cn1c(=O)n2cc(C(N)=O)nc2c2ccccc21 [Example 4, 2-Aminocarbonyl-6-N,N-diethylaminocarbonylmethyl-5-oxo-5,6-dihydroimidazo[1,2-c]quinazoline]	> 100	6	8		57.4	9.66	
CCc1c(-c2ccccc2)nc2c3ccccc3n(CC(=O)N(CC)CC)c(=O)n12 [Example 25, 2-phenyl-3-ethyl-6-N,N-diethylaminocarbonylmethyl-5-oxo-5,6-dihydroimidazo[1,2-c]quinazoline]		0.05	0.032		> 100	370	
OCCN(CCO)c1nc(N2CCCCC2)c2nc(N(CCO)CCO)nc(N3CCCCC3)c2n1 [Dipyridamole, dipyridamole, reference compound]		0.2	0.3		1.61	0.446	
